The results in this text go back to ChEMBL document CHEMBL4017512 (J Med Chem, 2017).

A short description of experiment [1]: Cytotoxicity against human HCT116/VM46 cells assessed as reduction in cell viability after 72 hrs by phosphatase assay. The class given is cell-based. The conditions noted are these: HCT-116/VM46, 72 h.
A further experiment relates to L1210. The experiment can be described thus: Antiproliferative activity against mouse L1210 cells after 72 hrs by phosphatase assay. The class given is functional, cell-based. The conditions noted are these: L1210, 72 h.
A further experiment concerns HCT-116. The experiment is described as follows: Antiproliferative activity against human HCT116 cells after 72 hrs by phosphatase assay. Type of experiment: functional, cell-based. The conditions noted are these: HCT-116, 72 h.

A word on the IC50: it is the point on the concentration scale where inhibition reaches its midpoint. Regarding `CC[C@]1(NC(=O)C2CCN(C(=O)OC(C)(C)C)CC2)C[C@H]2CN(CCc3c([nH]c4ccccc34)[C@@](C(=O)OC)(c3cc4c(cc3OC)N(C)[C@H]3[C@@](O)(C(=O)OC)[C@H](OC(C)=O)[C@]5(CC)C=CCN6CC[C@]43[C@@H]65)C2)C1`, the IC50 in experiment [1] came to 500 nM; in the experiment with L1210, 50 nM; in the experiment with HCT-116, 45 nM.

`CC[C@]1(NC(=O)c2ccon2)C[C@H]2CN(CCc3c([nH]c4ccccc34)[C@@](C(=O)OC)(c3cc4c(cc3OC)N(C)[C@H]3[C@@](O)(C(=O)OC)[C@H](OC(C)=O)[C@]5(CC)C=CCN6CC[C@]43[C@@H]65)C2)C1`: the results for the IC50 (in experiment [1]; with L1210; in the experiment on HCT-116) were 90 nM, 4.5 nM and 7 nM, respectively.

As to `CC[C@]1(NC(=O)c2cc(C)cc(C)c2)C[C@H]2CN(CCc3c([nH]c4ccccc34)[C@@](C(=O)OC)(c3cc4c(cc3OC)N(C)[C@H]3[C@@](O)(C(=O)OC)[C@H](OC(C)=O)[C@]5(CC)C=CCN6CC[C@]43[C@@H]65)C2)C1`, the IC50 in experiment [1] stood at 9.2 nM; with L1210, 5.4 nM; with HCT-116, 6 nM.

Take `CC[C@]1(NC(=O)c2ccc3occc3c2)C[C@H]2CN(CCc3c([nH]c4ccccc34)[C@@](C(=O)OC)(c3cc4c(cc3OC)N(C)[C@H]3[C@@](O)(C(=O)OC)[C@H](OC(C)=O)[C@]5(CC)C=CCN6CC[C@]43[C@@H]65)C2)C1`: the IC50 worked out at 25 nM in experiment [1], 5 nM in the experiment with L1210 and 3.8 nM with HCT-116.

Consider `CC[C@]1(NC(=O)c2ccc(C)cc2)C[C@H]2CN(CCc3c([nH]c4ccccc34)[C@@](C(=O)OC)(c3cc4c(cc3OC)N(C)[C@H]3[C@@](O)(C(=O)OC)[C@H](OC(C)=O)[C@]5(CC)C=CCN6CC[C@]43[C@@H]65)C2)C1`, for which the figures for the half-inhibitory concentration (IC50) (in experiment [1]; in the experiment with L1210; in the experiment with HCT-116) were 4.5 nM, 0.5 nM and 0.45 nM, respectively.

On to `CC[C@]1(NS(=O)(=O)c2c(C)cc(C)cc2C)C[C@H]2CN(CCc3c([nH]c4ccccc34)[C@@](C(=O)OC)(c3cc4c(cc3OC)N(C)[C@H]3[C@@](O)(C(=O)OC)[C@H](OC(C)=O)[C@]5(CC)C=CCN6CC[C@]43[C@@H]65)C2)C1`, for which the IC50 in experiment [1] was found to be 710 nM; with L1210, 500 nM; with HCT-116, 580 nM.

Turning to `CC[C@]1(NC(=O)c2cccc(SC)c2)C[C@H]2CN(CCc3c([nH]c4ccccc34)[C@@](C(=O)OC)(c3cc4c(cc3OC)N(C)[C@H]3[C@@](O)(C(=O)OC)[C@H](OC(C)=O)[C@]5(CC)C=CCN6CC[C@]43[C@@H]65)C2)C1`, the IC50 was 20 nM in experiment [1], 5.4 nM in the experiment with L1210 and 2.3 nM in the experiment on HCT-116.

Take `CC[C@]1(NC(=O)c2coc3ccccc23)C[C@H]2CN(CCc3c([nH]c4ccccc34)[C@@](C(=O)OC)(c3cc4c(cc3OC)N(C)[C@H]3[C@@](O)(C(=O)OC)[C@H](OC(C)=O)[C@]5(CC)C=CCN6CC[C@]43[C@@H]65)C2)C1`: the results for the 50% inhibitory concentration (IC50) (in experiment [1]; in the experiment with L1210; in the experiment on HCT-116) were 35 nM, 4 nM and 4.6 nM, respectively.

Consider `CC[C@]1(NC(=O)/C=C/c2ccsc2)C[C@H]2CN(CCc3c([nH]c4ccccc34)[C@@](C(=O)OC)(c3cc4c(cc3OC)N(C)[C@H]3[C@@](O)(C(=O)OC)[C@H](OC(C)=O)[C@]5(CC)C=CCN6CC[C@]43[C@@H]65)C2)C1`, for which the values for the 50% inhibitory concentration (IC50) (in experiment [1]; with L1210; in the experiment with HCT-116) were 20 nM, 0.5 nM and 0.6 nM, respectively.

As to `CCCCCCCC(=O)N[C@@]1(CC)C[C@H]2CN(CCc3c([nH]c4ccccc34)[C@@](C(=O)OC)(c3cc4c(cc3OC)N(C)[C@H]3[C@@](O)(C(=O)OC)[C@H](OC(C)=O)[C@]5(CC)C=CCN6CC[C@]43[C@@H]65)C2)C1`, the figures for the 50% inhibitory concentration (IC50) (in experiment [1]; in the experiment with L1210; in the experiment on HCT-116) were 420 nM, 50 nM and 60 nM, respectively.

Take `CC[C@]1(NC(=O)c2cccc(S(=O)(=O)F)c2)C[C@H]2CN(CCc3c([nH]c4ccccc34)[C@@](C(=O)OC)(c3cc4c(cc3OC)N(C)[C@H]3[C@@](O)(C(=O)OC)[C@H](OC(C)=O)[C@]5(CC)C=CCN6CC[C@]43[C@@H]65)C2)C1`: the results for the IC50 (in experiment [1]; in the experiment on L1210; in the experiment with HCT-116) were 570 nM, 40 nM and 30 nM, respectively.

With `CC[C@]1(NC(=O)c2ccc(OC)c(F)c2)C[C@H]2CN(CCc3c([nH]c4ccccc34)[C@@](C(=O)OC)(c3cc4c(cc3OC)N(C)[C@H]3[C@@](O)(C(=O)OC)[C@H](OC(C)=O)[C@]5(CC)C=CCN6CC[C@]43[C@@H]65)C2)C1`, the concentration for half-maximal inhibition (IC50) was determined as 30 nM in experiment [1], 0.6 nM in the experiment on L1210 and 0.6 nM with HCT-116.

For the molecule `CC[C@]1(NC(=O)c2ccc(N(C)C(=O)OC(C)(C)C)cc2)C[C@H]2CN(CCc3c([nH]c4ccccc34)[C@@](C(=O)OC)(c3cc4c(cc3OC)N(C)[C@H]3[C@@](O)(C(=O)OC)[C@H](OC(C)=O)[C@]5(CC)C=CCN6CC[C@]43[C@@H]65)C2)C1`, the values for the 50% inhibitory concentration (IC50) (in experiment [1]; in the experiment with L1210; with HCT-116) were 35 nM, 4.1 nM and 3.9 nM, respectively.

`CC[C@]1(NC(=O)/C=C/c2ccncc2)C[C@H]2CN(CCc3c([nH]c4ccccc34)[C@@](C(=O)OC)(c3cc4c(cc3OC)N(C)[C@H]3[C@@](O)(C(=O)OC)[C@H](OC(C)=O)[C@]5(CC)C=CCN6CC[C@]43[C@@H]65)C2)C1`: the IC50 was found to be 50 nM in experiment [1], 0.6 nM with L1210 and 0.7 nM in the experiment with HCT-116.

Regarding `CC[C@]1(NC(=O)c2ccc(C)c(N)c2)C[C@H]2CN(CCc3c([nH]c4ccccc34)[C@@](C(=O)OC)(c3cc4c(cc3OC)N(C)[C@H]3[C@@](O)(C(=O)OC)[C@H](OC(C)=O)[C@]5(CC)C=CCN6CC[C@]43[C@@H]65)C2)C1`, the figures for the half-maximal inhibitory concentration (IC50) (in experiment [1]; in the experiment on L1210; in the experiment on HCT-116) were 25 nM, 0.6 nM and 0.7 nM, respectively.

Regarding `CC[C@]1(NC(=O)c2ccc(NC(=O)OC(C)(C)C)c(C)c2)C[C@H]2CN(CCc3c([nH]c4ccccc34)[C@@](C(=O)OC)(c3cc4c(cc3OC)N(C)[C@H]3[C@@](O)(C(=O)OC)[C@H](OC(C)=O)[C@]5(CC)C=CCN6CC[C@]43[C@@H]65)C2)C1`, the concentration for half-maximal inhibition (IC50) in experiment [1] worked out at 30 nM; in the experiment with L1210, 5.6 nM; in the experiment on HCT-116, 5.8 nM.

Turning to `CCOc1ccc(C(=O)N[C@@]2(CC)C[C@H]3CN(CCc4c([nH]c5ccccc45)[C@@](C(=O)OC)(c4cc5c(cc4OC)N(C)[C@H]4[C@@](O)(C(=O)OC)[C@H](OC(C)=O)[C@]6(CC)C=CCN7CC[C@]54[C@@H]76)C3)C2)cc1Br`, the IC50 amounted to 50 nM in experiment [1], 3.9 nM with L1210 and 6.2 nM in the experiment with HCT-116.

In the case of `CC[C@]1(NC(=O)c2ccc3cc4ccccc4cc3c2)C[C@H]2CN(CCc3c([nH]c4ccccc34)[C@@](C(=O)OC)(c3cc4c(cc3OC)N(C)[C@H]3[C@@](O)(C(=O)OC)[C@H](OC(C)=O)[C@]5(CC)C=CCN6CC[C@]43[C@@H]65)C2)C1`, the concentration for half-maximal inhibition (IC50) in experiment [1] amounted to 150 nM; with L1210, 40 nM; with HCT-116, 60 nM.

As for `CC[C@]1(NC(=O)c2ccc3ocnc3c2)C[C@H]2CN(CCc3c([nH]c4ccccc34)[C@@](C(=O)OC)(c3cc4c(cc3OC)N(C)[C@H]3[C@@](O)(C(=O)OC)[C@H](OC(C)=O)[C@]5(CC)C=CCN6CC[C@]43[C@@H]65)C2)C1`, the IC50 in experiment [1] amounted to 70 nM; in the experiment with L1210, 5.4 nM; with HCT-116 it was 5.1 nM.

On to `CC[C@]1(NC(=O)c2cccc(OC)c2)C[C@H]2CN(CCc3c([nH]c4ccccc34)[C@@](C(=O)OC)(c3cc4c(cc3OC)N(C)[C@H]3[C@@](O)(C(=O)OC)[C@H](OC(C)=O)[C@]5(CC)C=CCN6CC[C@]43[C@@H]65)C2)C1`, for which the figures for the half-maximal inhibitory concentration (IC50) (in experiment [1]; in the experiment on L1210; with HCT-116) were 8.7 nM, 0.6 nM and 0.8 nM, respectively.

As to `CC[C@]1(NC(=O)c2ccc3ccsc3c2)C[C@H]2CN(CCc3c([nH]c4ccccc34)[C@@](C(=O)OC)(c3cc4c(cc3OC)N(C)[C@H]3[C@@](O)(C(=O)OC)[C@H](OC(C)=O)[C@]5(CC)C=CCN6CC[C@]43[C@@H]65)C2)C1`, the results for the IC50 (in experiment [1]; in the experiment with L1210; with HCT-116) were 7.7 nM, 3.1 nM and 2.9 nM, respectively.

In the case of `CC[C@]1(NC(=O)c2ccc(OC(F)F)cc2)C[C@H]2CN(CCc3c([nH]c4ccccc34)[C@@](C(=O)OC)(c3cc4c(cc3OC)N(C)[C@H]3[C@@](O)(C(=O)OC)[C@H](OC(C)=O)[C@]5(CC)C=CCN6CC[C@]43[C@@H]65)C2)C1`, the half-maximal inhibitory concentration (IC50) in experiment [1] worked out at 17 nM; in the experiment with L1210 it was 5.9 nM; in the experiment with HCT-116 it was 1.7 nM.

For the molecule `CC[C@]1(NC(=O)c2nc3ccccc3s2)C[C@H]2CN(CCc3c([nH]c4ccccc34)[C@@](C(=O)OC)(c3cc4c(cc3OC)N(C)[C@H]3[C@@](O)(C(=O)OC)[C@H](OC(C)=O)[C@]5(CC)C=CCN6CC[C@]43[C@@H]65)C2)C1`, the IC50 came out at 470 nM in experiment [1], 180 nM in the experiment with L1210 and 80 nM in the experiment on HCT-116.

`CC[C@]1(NC(=O)c2ccc3scnc3c2)C[C@H]2CN(CCc3c([nH]c4ccccc34)[C@@](C(=O)OC)(c3cc4c(cc3OC)N(C)[C@H]3[C@@](O)(C(=O)OC)[C@H](OC(C)=O)[C@]5(CC)C=CCN6CC[C@]43[C@@H]65)C2)C1`: the IC50 in experiment [1] is 25 nM; in the experiment with L1210, 0.6 nM; in the experiment on HCT-116, 0.7 nM.

Take `CC[C@]1(NS(=O)(=O)c2ccccc2)C[C@H]2CN(CCc3c([nH]c4ccccc34)[C@@](C(=O)OC)(c3cc4c(cc3OC)N(C)[C@H]3[C@@](O)(C(=O)OC)[C@H](OC(C)=O)[C@]5(CC)C=CCN6CC[C@]43[C@@H]65)C2)C1`: the IC50 in experiment [1] stood at 680 nM; in the experiment on L1210, 45 nM; in the experiment with HCT-116 it was 50 nM.

Regarding `CC[C@]1(NC(=O)c2nc3ccccc3o2)C[C@H]2CN(CCc3c([nH]c4ccccc34)[C@@](C(=O)OC)(c3cc4c(cc3OC)N(C)[C@H]3[C@@](O)(C(=O)OC)[C@H](OC(C)=O)[C@]5(CC)C=CCN6CC[C@]43[C@@H]65)C2)C1`, the IC50 was 190 nM in experiment [1], 60 nM in the experiment with L1210 and 60 nM in the experiment on HCT-116.
